test system: P. falciparum strain 3D7; assay: In vitro potency against P. falciparum strain 3D7 (SYBR green/DAPI); assay type: cell-based; conditions: Plasmodium falciparum, reductions in parasitemia, read-out: IC50 values

SMILES | IC50 [nM]
Cc1ccc(C2(O)C(N)=Nc3ccc(Cl)cc32)c(C)c1 (stereo not drawn) [Compound 90] | 100 to 500
CC(C)Oc1cc(F)ccc1C1(O)C(N)=Nc2ccc(Cl)cc21 (stereo not drawn) [Compound 215] | 1 to 100
COc1cnc(F)c(C2(O)C(N)=Nc3ccc(Cl)cc32)c1 (stereo not drawn) [Compound 207] | 100 to 500
NC1=Nc2ccc(Cl)cc2C1(O)c1cccc(F)c1F (stereo not drawn) [Compound 95] | 100 to 500
CC(C)C1(O)C(N)=Nc2cccc(Cl)c21 (stereo not drawn) [Compound 227] | 100 to 500
COc1cc(C2(O)C(N)=Nc3ccc(Cl)cc32)c2c(ccn2C)c1 (stereo not drawn) [Compound 44] | 5000 to 15000
Cc1ccc2c(c1)C(O)(c1cc(Cl)cc3ccccc13)C(N)=N2 (stereo not drawn) [Compound 273] | 1 to 100
NC1=Nc2ccc(Cl)cc2C1(O)c1ccc(F)cc1 (stereo not drawn) [Compound 83] | 100 to 500
COc1ccc(OC(C)(C)C)c(C2(O)C(N)=Nc3ccc(Cl)cc32)c1 (stereo not drawn) [Compound 177] | 1 to 100
Cc1ccc2c(c1)C(O)(c1cc(Cl)ccc1OC(C)(C)C)C(N)=N2 (stereo not drawn) [Compound 261] | 1 to 100
CS(=O)(=O)c1ccc2c(c1)C(O)(c1ccccc1)C(N)=N2 (stereo not drawn) [Compound 101] | 5000 to 15000
CC(C)Sc1ccc(Cl)cc1C1(O)C(N)=Nc2ccc(Cl)cc21 (stereo not drawn) [Compound 176] | 1 to 100
CCOc1nc(Cl)ccc1C1(O)C(N)=Nc2ccc(C)cc21 (stereo not drawn) [Compound 64] | 5000 to 15000
COc1ccc(CC2(O)C(N)=Nc3ccccc32)cc1 (stereo not drawn) [Compound 126] | 100 to 500
COc1cc(C2(O)C(N)=Nc3ccc(Cl)cc32)c2c(cnn2C)c1 (stereo not drawn) [Compound 271] | 100 to 500
NC1=Nc2cccc(Cl)c2C1(O)c1ccccc1 (stereo not drawn) [Compound 33] | 100 to 500
COc1ccc2c(c1)C(O)(c1cc(OC)cc3ccccc13)C(N)=N2 (stereo not drawn) [Compound 61] | 5000 to 15000
N#Cc1ccc2c(c1)C(O)(c1ccccc1)C(N)=N2 (stereo not drawn) [Compound 88] | 1000 to 5000
NC1=Nc2ccc(Cl)cc2C1(O)c1cccc(C(F)(F)F)c1 (stereo not drawn) [Compound 14] | 100 to 500
NC1=Nc2ccc(CCc3ccccc3)cc2C1(O)c1ccccc1 (stereo not drawn) [Compound 92] | 100 to 500

SMILES | IC50 [nM]
NC1=Nc2ccc(Br)cc2C1(O)c1cccc2ccsc12 (stereo not drawn) [Compound 166] | 1 to 100
NC1=Nc2ccc(Cl)cc2C1(O)c1ccc(O)cc1 (stereo not drawn) [Compound 85] | 5000 to 15000
COc1ccc2c(c1)C(O)(c1cccc3ccsc13)C(N)=N2 (stereo not drawn) [Compound 159] | 1 to 100
CCc1ccccc1C1(O)C(N)=Nc2ccc(Cl)cc21 (stereo not drawn) [Compound 97] | 1 to 100
CC(=O)Nc1ccccc1C1(O)C(N)=Nc2ccc(Cl)cc21 (stereo not drawn) [Compound 103] | 5000 to 15000
NC1=Nc2ccc(Cl)cc2C1(O)c1cc(F)ccc1C1CC1 (stereo not drawn) [Compound 200] | 1 to 100
NC1=Nc2ccc(Cl)cc2C1(O)c1cc(F)ccc1N1CCOCC1 (stereo not drawn) [Compound 178] | 1 to 100
CC(C)n1ncc2cccc(C3(O)C(N)=Nc4ccc(Cl)cc43)c21 (stereo not drawn) [Compound 172] | 500 to 1000
CC(C)c1ccc2c(c1)C(O)(c1ccccc1)C(N)=N2 (stereo not drawn) [Compound 53] | 500 to 1000
CCOc1ccc(OC)cc1C1(O)C(N)=Nc2ccccc21 (stereo not drawn) [Compound 191] | 1 to 100
NC1=Nc2ccc(Cl)cc2C1(O)c1ccccc1C(F)(F)F (stereo not drawn) [Compound 96] | 1 to 100
COc1cc(F)c(C2(O)C(N)=Nc3ccc(Cl)cc32)cc1OC (stereo not drawn) [Compound 217] | 1 to 100
CCOc1cc(F)c(F)cc1C1(O)C(N)=Nc2ccc(C)cc21 (stereo not drawn) [Compound 255] | 1 to 100
COc1ccccc1C1(O)C(N)=Nc2ccc(Br)cc21 (stereo not drawn) [Compound 123] | 1 to 100
COc1cnc(OC)c(C2(O)C(N)=Nc3ccc(Cl)cc32)c1 (stereo not drawn) [Compound 201] | 1 to 100
COc1ccc(C2(O)C(N)=Nc3ccccc32)cc1 (stereo not drawn) [Compound 5] | 100 to 500
NC1=Nc2ccc(Cl)cc2C1(O)c1cccc2cnccc12 (stereo not drawn) [Compound 81] | 100 to 500
CC(C)c1ccccc1C1(O)C(N)=Nc2ccc(Cl)cc21 (stereo not drawn) [Compound 27] | 1 to 100
COc1ncc(Cl)cc1C1(O)C(N)=Nc2ccc(Cl)cc21 (stereo not drawn) [Compound 238] | 1 to 100

Reference: US8980926B2, “2-aminoindole compounds and methods for the treatment of malaria” (Genzyme Corporation, priority 2009, dated 2015)
